From US20120321610A1, “METHOD TO INHIBIT NEUROPATHIC PAIN BY INTRATHECAL INJECTION OF PROTEIN PHOSPHATASES” (priority 2011, published 2012)

What was measured:
Assay type in all cases: in vivo, rat
calcineurin = assay: Calcineurin activity in the PSD after intrathecal injection (commercial kit); settings: control, uninjured rats; 90 minutes after intrathecal injection; vs saline; FIG. 16
Description: (§1) Animals were anesthetized with isoflurane and while still deeply anesthetized were euthanized with an intracardiac injection of super-saturated potassium chloride (>350 mg/ml). A laminectomy was used to rapidly (<2 min) expose the lumbar spinal cord at L5. About 1 cm of the cord was excised and placed into a Petri dish containing dry-ice-cold saline or homogenizing buffer. Subsequently, the cord was cut under a dissecting microscope into dorsal and ventral halves, and the dorsal half further divided into ipsilateral and contralateral quadrants. All tissues were immediately placed into dry-ice cooled collecting tubes, and stored at −80° C. until used.
(§2) Calcineurin activity was obtained with a commercial kit (Enzo Life Sciences, Plymouth Meeting, Pa.) and expressed as nmol of phosphate released/min/mg of protein. Immunoblots were performed as described previously (Miletic et al., 2002). Calcineurin isoform […] (Millipore, Billerica, Mass.) was used at a dilution of 1:1000. Developed membranes were stripped and re-probed with beta III tubulin (1:1000; Promega, Madison, Wis.) as the loading control. Protein levels were estimated with the BioSpectrum 500 Image Analysis System (UVP, Upland, Calif.). The calcineurin Aα content within a gel was expressed over the beta III tubulin content, and then the content in sham-operated or CCI animals was normalized to those in control animals. […]

[1] = tested on: control, uninjured animals; assay: Thermal withdrawal latency in control, uninjured animals after intrathecal injection; settings: uninjured rats
Description: (§3) Thermal sensitivity is assessed using the hindpaw withdrawal test to a thermal noxious stimulus. An animal was placed inside a plastic box on a raised glass surface. The animal is free to move within the confines of the box. A movable, focused beam of radiant heat was placed under the glass on which the animal is resting a paw. The glass is progressively heated until a noxious threshold was reached to elicit paw withdrawal. As soon as the animal moved its paw, a photocell in the metal enclosure containing the heat source turned off the light. The latency (in sec) for the animal to withdraw its paw was recorded by a digital automatic display.
(§4) For both behaviors, the ipsilateral, injured, paw was tested four times to obtain an average value. Each test is separated by 5 min. Persons performing behavioral tests are blinded to treatment whenever possible.
(§5) The animals were anesthetized with isoflurane and securely held in the sternal position. A 25 μl Hamilton-brand microsyringe was fitted with a 25-gauge, 1-inch hypodermic needle and the needle inserted between the dorsal aspects of L5 and L6 perpendicular to the vertebral column. This site corresponds to the region where the spinal cord ends and the cauda equina begins and was chosen to reduce the possibility of spinal damage. The needle was advanced until a slight but noticeable movement of the tail or the leg was observed. […]

[2] = tested on: control, uninjured animals; assay: Mechanical withdrawal threshold in control, uninjured animals after intrathecal injection; settings: uninjured rats
Text: (§6) An automated instrument was used for assessing touch sensitivity. An animal was placed inside a plastic box on a raised plasticized wire-mesh surface. The animal is free to move within the confines of the box. The animal acclimates to the apparatus, and a touch stimulator unit was then slid under the animal to position a stainless steel filament (0.5 mm diameter) under the plantar surface of a paw. A button press causes the filament to move perpendicularly to the tested paw. The filament exerts an increasing force, starting below the threshold of detection and increases until the animal withdraws the paw. The force applied to the filament that results in paw withdrawal was recorded.
as §4
as §5, with “damage.” for “damage. The needle was advanced until a slight but noticeable movement of the tail or the leg was observed.”

[3] = tested on: CCI animals (chronic constriction injury of the sciatic nerve); assay: Thermal withdrawal latency in CCI animals after intrathecal injection; settings: for analgesia, thermal latency threshold: group data, 100 units intrathecal, FIG. 13
Description: as §3, §4
(§7) Animals were anesthetized with isoflurane and prepared for surgery by clipping the hair over the mid-thigh area of the left hind leg, scrubbing the clipped area with povidone iodine and alcohol (repeated three times), and lubricating the eyes with sterile ophthalmic ointment. The sciatic nerve was exposed at mid-thigh level by blunt dissection through the biceps femoris muscles. The nerve was freed of adherent tissue, and four ligatures (4.0 chromic gut) were spaced about 1 mm apart. Care was taken to tie the ligatures so that the nerve trunk is just barely constricted when viewed with a dissecting microscope at 40×. […] The incision was closed in layers using chromic gut sutures for muscle and silk sutures for skin.
(§8) A stock solution of calcineurin enzyme at a concentration of 100 units/microliter is commercially available (Enzo Life Sciences, Plymouth Meeting, Pa., Cat. No. BML-SE163-5000). The stock solution was diluted 1:10 with saline (1 part of calcineurin stock solution+9 parts of saline) to make a diluted calcineurin solution of 10 units/microliter. Ten microliters of the diluted calcineurin solution was then injected intrathecally. In other words the dose is 100 units of calcineurin per animal. Animal weights were approximately 200 to 250 g. This equates to a dosage of roughly 3 μg/kg body weight (in the rat).
(§9) The animals were anesthetized with isoflurane and securely held in the sternal position. A 25 μl Hamilton-brand microsyringe was fitted with a 25-gauge, 1-inch hypodermic needle and the needle inserted between the dorsal aspects of L5 and L6 perpendicular to the vertebral column. This site corresponds to the region where the spinal cord ends and the cauda equina begins and was chosen to reduce the possibility of spinal damage. The needle was advanced until a slight but noticeable movement of the tail or the leg was observed. […] Drugs were injected in a volume of 10 μl and the syringe was held in place for a few seconds before being progressively and slowly withdrawn to avoid drug outflow. The rat then recovers from the anesthesia.

[4] = tested on: CCI animals (chronic constriction injury of the sciatic nerve); assay: Mechanical withdrawal threshold in CCI animals after intrathecal injection; settings: for analgesia, mechanical stimulus threshold: group data, FIG. 12
Text: as §6, §4, §7, §8, §9

calcineurin Aα isoform = assay: Immunoblot of calcineurin Aα content in the post-synaptic density of spinal dorsal horn neurons after intrathecal injection; settings: CCI rats; 90 min after single intrathecal injection of 100 units; vs saline; FIG. 7
Description: as §1, §2

## FK-506 [reference compound]
calcineurin
  calcineurin activity in PSD: significant decrease
[1]; 90 minutes after intrathecal injection, vs saline, FIG. 15
  thermal latencies: significant decrease
[2]; 90 minutes after intrathecal injection, vs saline, FIG. 14
  mechanical withdrawal thresholds: significant decrease

## calcineurin
[3]; CCI rats 7 days post-ligation, 100 units in 10 μl intrathecal, retested 90 min after injection, FIG. 6
  thermal hypersensitivity: significantly attenuated
[3]; CCI rats, 2-day post-injection group
  analgesia, thermal latency threshold: provided analgesia
[3]; CCI rats, 4-day post-injection group
  analgesia, thermal latency threshold: provided analgesia
[3]; CCI rats, 6-day post-injection group
  analgesia, thermal latency threshold: disappeared
[3]; CCI rats, single intrathecal injection 100 units, 2 days after injection, continuous, FIG. 9
  thermal hypersensitivity: significantly attenuated
[3]; CCI rats, single intrathecal injection 100 units, 4 days after injection, continuous, FIG. 9
  thermal hypersensitivity: continued to exhibit analgesia
[3]; CCI rats, single intrathecal injection 100 units, 6 days after injection, continuous, FIG. 9
  thermal hypersensitivity: exhibited once again mechanical and thermal hypersensitivity
[4]; CCI rats 7 days post-ligation, 100 units in 10 μl intrathecal, retested 90 min after injection, FIG. 5
  mechanical hypersensitivity: significantly attenuated
[4]; CCI rats, 100 units intrathecal, mechanical and thermal tests
  duration of pain relief from a single intrathecal injection: ≥ 4 days
[4]; CCI rats, 2-day post-injection group, 100 units intrathecal
  analgesia, mechanical stimulus threshold: provided analgesia
[4]; CCI rats, 4-day post-injection group, 100 units intrathecal
  analgesia, mechanical stimulus threshold: provided analgesia
[4]; CCI rats, 6-day post-injection group, 100 units intrathecal
  analgesia, mechanical stimulus threshold: disappeared
[4]; CCI rats, single intrathecal injection 100 units, 2 days after injection, same animals retested (continuous), FIG. 8
  mechanical hypersensitivity: significantly attenuated
[4]; CCI rats, single intrathecal injection 100 units, 4 days after injection, continuous, FIG. 8
  mechanical hypersensitivity: continued to exhibit analgesia
[4]; CCI rats, single intrathecal injection 100 units, 6 days after injection, continuous, FIG. 8
  mechanical hypersensitivity: exhibited once again mechanical and thermal hypersensitivity
Calcineurin Aα isoform
  calcineurin Act in ipsilateral PSD: significantly more
[1]; single intrathecal injection, FIG. 11
  behavior, thermal stimulation: not modified
[2]; single intrathecal injection, FIG. 10
  behavior, mechanical stimulation: not modified
